Experimental data taken from US7858613B2, “Substituted benzo-condensed cycloheptanone derivatives and their use for producing drugs” (Gruenenthal GmbH, priority 2005, dated 2010).

Columns and labels:
human CB2 receptor = molecular target: T1, human CB2 receptor (Homo sapiens, UniProt P34972); assay: Affinity for cannabinoid receptor CB2, [3H]-CP 55,940 displacement on HEK-293EBNA membranes; conditions: 10 μM test substance; 0.33 nM [3H]-CP 55,940; percent inhibition of specific binding
T1 construct: expressed in transfected cells; host or cells: HEK-293EBNA cells (membranes)
Description: VI. Determination of the Affinity for the Cannabinoid Receptor CB2 (CB2 Receptor):
To determine the affinity of the inventive compounds for the cannabinoid receptor, membranes from human recombinant HEK-293EBNA cells were used, which had been transfected stably with the human CB2 receptor. The radioligand used was tritium-labeled 5-(1,1-dimethylheptyl)-2-(5-hydroxypropyl)cyclohexyl)-1-alpha,2-beta,5-alpha)phenol ([3]H—CP 55,940 with 103.4 Ci/mmol, 1 mCi/ml). The determination was effected in a test buffer composed of 50 mM Tris-HCl, 2.5 mM EDTA, 5 mM MgCl2 and 1.0 mg/ml of fatty acid-free BSA. The test substances were each dissolved in DMSO.
The affinity of the inventive compounds for the CB2 receptor is determined by their ability to displace [3]H—CP 55,940 from CB2 receptors in membranes from HEK-293EBNA cells. To this end, in each case 8 μg of the membranes (20 μl of a solution from membranes in a concentration of 400 μg/ml) are incubated in wells on a microtiter plate with a 0.33 nM solution of ^[3]H-CP […] (120 Ci/mmol) in a total volume of test buffer of 200 μl at 30° C. for 90 minutes.
Subsequently, either the test substances or WIN 55212-2 to determine the unspecific binding, in each case dissolved in DMSO, are added to the wells so as to result in each case in a concentration of the corresponding substances of 10 μM.
Incubation at 30° C. is continued for a further 40 minutes. The binding reaction was ended by rapid filtration through GF/C filter paper which had been treated with 0.05% PEI using a Brandel cell harvester with 96 wells. The filters are washed nine times with 0.5 ml of ice-cooled washing buffer ([…] Tris-HCl, 5 mM MgCl2, 2.5 mM EDTA, 2% BSA, pH 7.4), air-dried and placed in scintillation fluid, and the radioactivity is determined with the aid of a scintillation counter.
The percentage displacement of the radioactive ligand ^[3]H-CP 55,940 from its binding to the CB2 receptor is reported as percent inhibition of the specific binding.

[1] = molecular target: T2, vanilloid receptor 1 (VR1/TRPV1) (Rattus norvegicus, UniProt O35433); assay: Functional study on vanilloid receptor 1 (VR1/TRPV1), FLIPR Ca2+ assay in rat dorsal root ganglia cells; format: cell-based; conditions: test compound 10 μM, rat DRG cells; for inhibition at 10 µM: suppression of Ca2+ current after 100 nM capsaicin, read-out: VR1 (rat) (% inhibition compared to 10 μM CP)
T2 construct: The spinal column is removed from beheaded rats; from tissue; host or cells: primary cells from rat dorsal root ganglia
Experimental: Preference may likewise be given to inventive compounds which, in the FLIPR assay, in a concentration of 10 μM, have an inhibition of the Ca^2+ ion current in dorsal root ganglia of rats of at least 10%, preferably of at least 30%, more preferably of at least 50%, even more preferably of at least 70%, even more preferably of at least 90%, compared to the maximum achievable inhibition of the Ca^2+ ion current with […] in a concentration of 10 μM.
In the FLIPR assay, the Ca^2+ current is quantified with the aid of a Ca^2+-sensitive dye (Fluo-4 type, Molecular Probes Europe BV, Leiden, the Netherlands) in the fluorescent imaging plate reader (FLIPR, Molecular Devices, Sunnyvale, USA), as described below.
I. Functional Study on the Vanilloid Receptor 1 (VR1/TRPV1 Receptor)
The agonistic or antagonistic action of the substances to be studied on the vanilloid receptor 1 (VR1/TRPV1) of the rat species can be determined with the following assay. In this assay, the Ca^2+ current through the receptor channel is quantified with the aid of a Ca^2+-sensitive dye (Fluo-4 type, Molecular Probes Europe BV, Leiden the Netherlands) in a fluorescent imaging plate reader (FLIPR, Molecular Devices, Sunnyvale, USA).
Cell culture plate: poly-D-lysine-coated, black 96-hole plates with a clear bottom (96 well black/clear plate, BD Biosciences, Heidelberg, Germany) are additionally coated with laminin (Gibco Invitrogen GmbH, Karlsruhe, Germany) by diluting laminin to a concentration of 100 μg/ml with PBS (Ca—Mg-free PBS, Gibco Invitrogen GmbH, Karlsruhe, Germany). Aliquots having a concentration of 100 μg/ml of laminin are withdrawn and stored at −20° C. The aliquots are diluted with PBS in a ratio of 1:10 to 10 μg/ml of laminin and in each case 50 μl of the solution are pipetted into a well of the cell culture plate. The cell culture plates are incubated at 37° C. for at least two hours, the supernatant solution is removed by suction and the wells are each washed twice with PBS. The coated cell culture plates are stored with supernatant PBS which is not removed until directly before the application of the cells.
The spinal column is removed from beheaded rats and placed directly into cold HBSS buffer (Hank's buffered saline solution, Gibco Invitrogen GmbH, Karlsruhe, Germany), i.e. placed in an ice bath, which has been admixed with 1% by volume of an AA solution (antibiotic/antimycotic solution, PAA, Pasching, Austria). The spinal column is severed longitudinally and removed from the spinal canal together with fasciae. Subsequently, the dorsal root ganglia (DRGs) are removed and in turn stored in cold HBSS buffer admixed with 1% by volume of an AA solution. The DRGs freed completely of blood residues and spinal nerves are in each case transferred to 500 μl of cold type 2 collagenase (PAA, Pasching, Austria) and incubated at 37° C. for 35 minutes. After addition of 2.5% by volume of trypsin (PAA, Pasching, Austria), incubation is continued at 37° C. for a further 10 minutes. After complete incubation, the enzyme solution is cautiously pipetted off and the remaining DRGs are each admixed with 500 μl of complete medium.
The DRGs are each suspended repeatedly, drawn through cannulas No. 1, No. 12 and No. 16 by means of a syringe and transferred to 50 ml Falcon tubes which are made up to 15 ml with complete medium. The contents of each Falcon tube are in each case filtered through a 70 μm Falcon filter insert and centrifuged at 1200 revolutions and room temperature for 10 minutes. The resulting pellet is in each case taken up in 250 μl of complete medium and the cell count is determined.
The number of cells in the suspension is adjusted to 3 times 10^5 per ml and in each case 150 μl of this suspension are added to one well of the cell culture plates coated as described above. In the incubator, the plates are left to stand at 37° C., 5% by volume of CO2 and 95% relative air humidity for two to three days. […]

vanilloid receptor (VR1) = molecular target: T3, vanilloid receptor (VR1) (Homo sapiens, UniProt Q8NER1); assay: Functional study on vanilloid receptor (VR1), FLIPR Ca2+ assay in VR1-transfected CHO K1 cells; format: cell-based; conditions: test substance 10 μM; CHO K1 cells transfected with VR1; suppression of Ca2+ current after 100 nM capsaicin; read-out: VR1 (human) (% inhibition compared to 10 μM CP)
T3 construct: expressed in transfected cells; host or cells: CHO K1 cells (ECACC)
Description: II. Functional Studies on the Vanilloid Receptor (VR1)
The agonistic or antagonistic action of the substances to be tested on vanilloid receptor (VR1) can also be determined with the assay which follows. In this assay, the Ca^2+ current through the channel is quantified with the aid of a Ca^2+-sensitive dye (Fluo-4 type, Molecular Probes, Europe BV, Leiden, the Netherlands) in a fluorescent imaging plate reader (FLIPR, Molecular Devices, Sunnyvale, USA).
Chinese hamster ovary cells (CHO K1 cells, European Collection of Cell Cultures (ECACC) Great Britain) are transfected stably with the VR1 gene. For functional studies, these cells are plated out onto poly-D-lysine-coated black 96-well plates with a clear bottom (BD Biosciences, Heidelberg, Germany) in a density of 25 000 cells/well. The cells are incubated overnight at 37° C. and 5% CO2 in a culture medium (Ham's Nutrient Mixture F12, 10% by volume of FCS (fetal calf serum), 18 μg/ml of L-proline). The next day, the cells are incubated with Fluo-4 (Fluo-4 2 μM, Pluronic F127 0.01% by volume, Molecular Probes in HBSS (Hank's buffered saline solution), Gibco Invitrogen GmbH, Karlsruhe, Germany) at 37° C. for 30 minutes. Subsequently, the plates are washed 3 times with HBSS buffer and, after a further incubation of 15 minutes at room temperature, used for Ca^2+ measurement in FLIPR. The Ca^2+-dependent fluorescence is measured before and after addition of the substances to be studied (wavelength λex=488 nm, λem=540 nm). The quantification is effected by measuring the highest fluorescence intensity (FC, fluorescence counts) over the time.
The FLIPR protocol consists of 2 substance additions. First, the substances to be tested (10 μM) are pipetted onto the cells and the Ca^2+ current is compared with the control (capsaicin 10 μM) (% activation based on the Ca^2+ signal after addition of 10 μM capsaicin). After incubation for 5 minutes, 100 nM capsaicin is applied and the current of Ca^2+ is likewise determined.
Desensitizing agonists and antagonists led to a suppression of the Ca^2+ current. % inhibition is calculated compared to the maximum achievable inhibition with 10 μM capsazepine.

T1 sequence (P34972 whole entry): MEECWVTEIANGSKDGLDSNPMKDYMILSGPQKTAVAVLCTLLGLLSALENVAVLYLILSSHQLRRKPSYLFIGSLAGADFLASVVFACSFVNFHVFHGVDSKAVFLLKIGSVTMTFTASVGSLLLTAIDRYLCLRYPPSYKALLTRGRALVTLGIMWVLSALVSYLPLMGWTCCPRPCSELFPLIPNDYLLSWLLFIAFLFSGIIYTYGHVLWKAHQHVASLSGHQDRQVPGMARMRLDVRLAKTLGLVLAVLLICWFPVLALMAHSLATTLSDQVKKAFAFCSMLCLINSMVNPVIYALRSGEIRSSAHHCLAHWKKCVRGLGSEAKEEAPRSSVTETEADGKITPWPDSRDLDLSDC
T2 sequence (O35433 whole entry): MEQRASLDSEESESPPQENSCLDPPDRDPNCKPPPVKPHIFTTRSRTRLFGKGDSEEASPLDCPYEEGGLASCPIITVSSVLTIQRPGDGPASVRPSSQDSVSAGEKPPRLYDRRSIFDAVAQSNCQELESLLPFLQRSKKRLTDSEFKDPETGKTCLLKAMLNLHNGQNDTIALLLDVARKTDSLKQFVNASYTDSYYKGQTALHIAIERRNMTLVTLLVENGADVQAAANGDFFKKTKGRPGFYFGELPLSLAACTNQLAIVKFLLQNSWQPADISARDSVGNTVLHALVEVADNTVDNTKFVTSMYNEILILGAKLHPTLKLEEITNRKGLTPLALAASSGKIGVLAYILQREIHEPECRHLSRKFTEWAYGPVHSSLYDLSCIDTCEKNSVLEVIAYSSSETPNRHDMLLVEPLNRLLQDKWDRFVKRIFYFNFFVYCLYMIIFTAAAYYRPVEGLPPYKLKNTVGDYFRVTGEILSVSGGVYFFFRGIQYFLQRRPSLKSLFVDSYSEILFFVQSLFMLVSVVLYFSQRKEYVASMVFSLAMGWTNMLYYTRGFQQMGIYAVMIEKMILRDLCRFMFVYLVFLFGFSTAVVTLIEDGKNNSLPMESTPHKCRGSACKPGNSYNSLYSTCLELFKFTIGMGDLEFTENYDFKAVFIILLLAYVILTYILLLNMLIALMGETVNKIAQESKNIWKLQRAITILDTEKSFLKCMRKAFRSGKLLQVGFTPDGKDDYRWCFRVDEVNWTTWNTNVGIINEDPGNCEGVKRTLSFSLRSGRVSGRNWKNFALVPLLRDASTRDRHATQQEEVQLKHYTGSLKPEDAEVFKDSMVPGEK
T3 sequence (Q8NER1 whole entry): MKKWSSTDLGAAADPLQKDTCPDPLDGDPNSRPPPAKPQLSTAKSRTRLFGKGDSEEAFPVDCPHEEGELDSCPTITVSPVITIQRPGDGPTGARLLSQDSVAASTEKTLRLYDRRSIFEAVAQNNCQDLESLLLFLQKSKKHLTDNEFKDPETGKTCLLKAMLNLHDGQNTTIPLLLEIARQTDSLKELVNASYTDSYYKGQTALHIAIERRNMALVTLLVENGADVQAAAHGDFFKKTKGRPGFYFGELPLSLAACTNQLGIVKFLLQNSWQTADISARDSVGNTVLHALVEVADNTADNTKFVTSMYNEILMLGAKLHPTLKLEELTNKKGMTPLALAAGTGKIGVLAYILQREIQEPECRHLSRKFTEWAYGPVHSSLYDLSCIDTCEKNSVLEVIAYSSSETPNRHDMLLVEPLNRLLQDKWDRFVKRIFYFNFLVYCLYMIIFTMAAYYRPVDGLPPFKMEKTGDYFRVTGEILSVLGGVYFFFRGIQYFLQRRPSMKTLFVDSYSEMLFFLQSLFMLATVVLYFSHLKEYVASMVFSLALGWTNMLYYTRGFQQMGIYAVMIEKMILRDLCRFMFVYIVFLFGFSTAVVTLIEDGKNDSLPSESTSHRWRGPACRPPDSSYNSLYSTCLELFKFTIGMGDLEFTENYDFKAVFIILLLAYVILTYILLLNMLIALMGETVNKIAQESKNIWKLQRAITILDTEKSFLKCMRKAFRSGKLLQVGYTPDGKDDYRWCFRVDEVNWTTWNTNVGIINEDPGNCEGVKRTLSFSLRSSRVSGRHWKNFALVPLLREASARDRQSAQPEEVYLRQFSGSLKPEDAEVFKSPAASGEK

Compound	inhibition at 10 µM (human CB2 receptor) [%]	inhibition at 10 µM [1] [%]	inhibition at 10 µM (vanilloid receptor (VR1)) [%]	VR1 (rat) (% stimulation compared to 10 μM CP) ([1]; Ca2+ signal relative to 10 μM capsaicin (CP)) [%]
O=C(Nc1ccc(F)cc1F)OCC1(COC(=O)Nc2ccc(F)cc2F)CCOc2ccccc2C1=O [Example Compound 16, 2,4-Difluorophenylcarbamic acid 4-(2,4-difluorophenylcarbamoyloxymethyl)-5-oxo-2,3,4,5-tetrahydrobenzo[b]oxepin-4-ylmethyl ester]	63.4	–	–	–
O=C(NC(=O)c1ccccc1)OCC1(COC(=O)NC(=O)c2ccccc2)CCOc2ccccc2C1=O [Example Compound 19, Benzoylcarbamic acid 4-benzoylcarbamoyloxymethyl-5-oxo-2,3,4,5-tetrahydro-benzo[b]oxepin-4-ylmethyl ester]	40.3	32.2	13.3	–
CCCCCNC(=O)OCC1(COC(=O)NCCCCC)CCSc2ccccc2C1=O [Example Compound 14, pentylcarbamic acid 4-(pentylcarbamoyloxymethyl)-5-oxo-2,3,4,5-tetrahydrobenzo[b]thiepin-4-ylmethyl ester]	61.8	–	–	–
O=C(Nc1ccc(Br)cc1)OCC1CCSc2ccccc2C1=O (stereo not drawn) [Example Compound 5, (4-Bromophenyl)carbamic acid 5-oxo-2,3,4,5-tetrahydrobenzo[b]thiepin-4-ylmethyl ester]	36.2	–	53.8	–
O=C1c2ccccc2SCCC1(CO)COC(=S)Nc1cccc(C(F)(F)F)c1 (stereo not drawn) [Example Compound 17, (3-Trifluoromethylphenyl)thiocarbamic acid O-(4-hydroxymethyl-5-oxo-2,3,4,5-tetrahydrobenzo[b]thiepin-4-ylmethyl)ester]	3.8	46.6	17.1	–
O=C1c2ccccc2CCCC1(CO)COC(=S)Nc1cccc(C(F)(F)F)c1 (stereo not drawn) [Example Compound 22, (3-Trifluoromethylphenyl)thiocarbamic acid O-(6-hydroxymethyl-5-oxo-6,7,8,9-tetrahydro-5H-benzocyclohepten-6-ylmethyl)ester]	–	59.7	67.5	77.9
O=C1c2ccccc2OCCC1(CO)COC(=S)Nc1cccc(C(F)(F)F)c1 (stereo not drawn) [Example Compound 18, (3-Trifluoromethylphenyl)thiocarbamic acid O-(4-hydroxymethyl-5-oxo-2,3,4,5-tetrahydrobenzo[b]oxepin-4-ylmethyl)ester]	15.6	52.1	31.5	–
O=C1c2ccccc2SCCC1(CO)COC(=S)Nc1ccccc1 (stereo not drawn) [Example Compound 9, Phenylthiocarbamic acid O-(4-hydroxymethyl-5-oxo-2,3,4,5-tetrahydro-benzo[b]thiepin-4-ylmethyl)ester]	28.3	52.8	51.3	–
O=C1c2ccccc2SCCC1(CO)COC(=S)Nc1ccc(F)cc1F (stereo not drawn) [Example Compound 21, (2,4-Difluorophenyl)thiocarbamic acid O-(4-hydroxymethyl-5-oxo-2,3,4,5-tetrahydrobenzo[b]thiepin-4-ylmethyl)ester]	–	34.6	36.3	–
O=C(Nc1ccc(F)cc1F)OCC1(CO)CCSc2ccccc2C1=O (stereo not drawn) [Example Compound 20, (2,4-Difluorophenyl)carbamic acid 4-hydroxymethyl-5-oxo-2,3,4,5-tetrahydro-benzo[b]thiepin-4-ylmethyl ester]	41	17.1	21.8	–
CCCCCNC(=O)OCC1CCSc2ccccc2C1=O (stereo not drawn) [Example Compound 1, Pentylcarbamic acid 5-oxo-2,3,4,5-tetrahydrobenzo[b]thiepin-4-ylmethyl ester]	42.2	–	–	–
O=C(NC1CCCCC1)OCC1(CO)CCSc2ccccc2C1=O (stereo not drawn) [Example Compound 6, Cyclohexylcarbamic acid 4-hydroxymethyl-5-oxo-2,3,4,5-tetrahydro-benzo[b]thiepin-4-ylmethyl ester]	53.6	–	26.7	–
